Test results published in patent US5049550A, “Diadenosine 5', 5'"-p^1, p^4,-tetraphosphate analogs as antithrombotic agents” (Worcester Foundation for Experimental Biology, priority 1988, dated 1991).
“Also recorded” adds a separate entry of the source.

Legend:
[1] = tested on: rabbit platelet aggregation by collagen; test: Collagen-induced aggregation of rabbit platelets; assay type: cell-based
Description: (§1) Rabbit carotid arterial blood was collected in 3.8% sodium citrate (9 volumes blood to 1 volume citrate). Platelet rich plasma (PRP) and platelet poor plasma (PPP) were prepared by centrifugation at 150 g and 1,000 g for 10 minutes respectively. Aggregation studies were performed in a Chrono-Log (Havertown, Pa.) aggregometer with ADP or collagen as aggregating agents. ADP (Sigma Chemical Co.) was used in a final concentration of 2×10^-5 M. Calf skin collagen (Sigma Chemical Co.) was used in a final concentration of 200 ug/ml.
The effect of AP4 A on rabbit platelet aggregation by ADP and collagen was tested. […] The anti-aggregatory effect of AP4 A was detected at a concentration of 2×10^-4 M (tenfold that of ADP) and increased in a dose-response pattern with increasing concentrations (FIG. 1).

[2] = tested on: ADP induced platelet aggregation; conditions: in vitro; even when aggregation has progressed to 60% completion; cited from earlier work
[3] = tested on: Intracarotid Artery Thrombosis; test: Intracarotid cannula arterial thrombosis model in rabbits; assay type: in vivo, rabbit
Description: Gurewich, V. and Lipinski, B. Thrombosis Research, 9:101 (1976); Louie, S. and Gurewich, V. Thrombosis Research, 30:323-335 (1983).
(§2) Male, New Zealand white rabbits, weighing 2-2.5 kg., were anesthetized with ketamine hydrochloride (100 mg/kg intramuscularly). AP4 A (Boehringer (100 Mannheim Biochemicals, Indianapolis, Ind.), or saline control was infused via a marginal ear vein. A segment of the left common carotid artery was isolated by vascular clamps. A 1 cm. length of polyethylene tubing (PE-90, Clay Adams, Parsippany, N.Y.) was inserted, secured by silk ligatures, and the blood flow re-established by removing the clamps. Blood was sampled from the right carotid artery for assays of AP4 A and ATP, and for platelet aggregation studies.
(§3) After preliminary trials, a standard AP4 A infusion protocol was established as follows: A dose of AP4 A at 50 mg/kg was reconstituted in 10 ml of normal saline and infused by pump at a uniform rate over two hours. Control rabbits received 10 ml of saline alone. The intracarotid cannula was inserted, and the re-establishment of blood flow timed at 15 minutes into the infusion. Upon the completion of infusion at 2 hours, the intracarotid tubing was removed, and its contents flushed out into a petri dish. The presence of a clot or of liquid blood contents was noted.
Twenty-five rabbits each were assigned to the experimental group that received AP4 A (50 mg/kg), and the control group that received normal saline alone. The incidence of clot formation in the intracarotid cannula in the two groups was compared by the Chi-Square test.
Initially, twelve rabbits received a constant infusion of E10 over a 2 hour period at a dosage of 100 mg in 10 ml. These intravenous infusions were performed as described above for AP4 A.
In addition, 30 mg of E10 in 3 ml saline was administered as a single injection over a one minute time span at the beginning of the cannulation period.

[4] = Assay of blood AP4 A and ATP before and after AP4 A infusion in rabbits (in vivo); parameters: species or system rabbit
Description: as §2, §3
(§4) Blood samples were collected from the carotid artery through a catheter before and after (0, 10, 20, 40, and 60 minutes) infusion of AP4 A. Blood was anticoagulated by mixing with 0.15 volume of acid-citrate-dextrose solution. An aliquot of blood collected at the end of AP4 A infusion (to sample) was incubated at 37° C. and sampled at 10, 20, 40, and 60 minutes to evaluate the in vitro decay of AP4 A. Blood samples of […] 3% perchloric acid and kept at 0° C. for 30 minutes with intermittent vortexing. The acid soluble fraction was recovered by centrifugation at 1000 g for 10 minutes and neutralized by 5M K2 CO3. It was then kept at -80° C. until assay of the nucleotides. The AP4 A assay was performed by coupling the phosphodiesterase and luciferase reactions in a luminometer (Model 6100 Picolite, Packard, Downers Grove, Ill.). The detailed method of AP4 A and ATP assays has been reported elsewhere (Kim, B. K., Chao, F. C., Leavitt, R., Fauci, A. S., Meyers, K. M. and Zamecnik, P. C. Blood, 66:735-737, 1985).
(§5) The disappearance of infused AP4 A in the circulation and in incubated blood was studied in 2 rabbits. Mean values of hemoglobin, hematocrit and platelet count were 10.1 g/dl, 30.8% and 362,000/ul respectively. The blood content of AP4 A in the rabbits was 51 nmol/1 blood prior to infusion. […] Kim, B. K. et al., Blood, 66:735-737 (1985); Flodgaard, H., Zamecnik, P. C. Meyers, K. and Klenow, H., Thrombosis Research, 37:345-351 (1986). […] A very rapid disappearance of infused AP4 A was observed, with complete clearance within 10 minutes after infusion. When blood samples obtained at the end of AP4 A infusion were incubated at 37° C., only 15-fold and 4-fold levels of AP4 A, as compared to baseline could be detected after 10 minutes and 20 minutes respectively.

[5] = plasma; cited from earlier work
[6] = Decay of AP4 A / ATP in incubated rabbit blood collected at the end of AP4 A infusion (ex vivo); assay type: in vitro ADME; conditions: for level of AP4 A as compared to baseline: 37° C.
Description: as §4, §5

[7] = tested on: collagen-induced aggregation of platelets; test: Collagen-induced aggregation of platelets recovered from AP4 A-infused rabbits; assay type: in vivo, rabbit; conditions: 50 mg per kg over 2 hours; collagen 200 ug/ml (FIG. 4)
Description: as §3, §1

[8] = AP4 A 50 mg/kg infused over 2 hours, 25 rabbits
[9] = in vivo, before infusion of AP4 A

level of ATP after AP4 A infusion ([4]; an initial increment and a late increment): bimodal increments
increase of blood AP4 A at the end of infusion ([4]; end of infusion): 125 fold of baseline
concentration ([4]; end of infusion, 50 mg/kg): 6400 nM
half-life in rabbit blood ([4]; in vivo and ex vivo): short half-life
ATP, umol/l blood ([4]; in vivo, 0 min after infusion of AP4 A (50 mg/kg over 2 h)): 579.0 umol/l blood
ATP, umol/l blood ([4]; in vivo, 10 min after infusion of AP4 A (50 mg/kg over 2 h)): 573.5 umol/l blood
ATP, umol/l blood ([4]; in vivo, 20 min after infusion of AP4 A (50 mg/kg over 2 h)): 564.0 umol/l blood
ATP, umol/l blood ([4]; in vivo, 40 min after infusion of AP4 A (50 mg/kg over 2 h)): 562.0 umol/l blood
ATP, umol/l blood ([4]; in vivo, 60 min after infusion of AP4 A (50 mg/kg over 2 h)): 629.5 umol/l blood
AP4 A, umol/l blood [4, 9]: 0.051 umol/l blood
ATP, umol/l blood [4, 9]: 522.9 umol/l blood
concentration at 0 h ([4]; rabbit, blood, iv, in vivo, 0 min after infusion (50 mg/kg over 2 h), read-out: AP4 A, umol/l blood): 6.41 µmol/L
concentration at 10 min ([4]; rabbit, blood, iv, in vivo, 10 min after infusion (50 mg/kg over 2 h), read-out: AP4 A, umol/l blood): 0.043 µmol/L
concentration at 20 min ([4]; rabbit, blood, iv, in vivo, 20 min after infusion (50 mg/kg over 2 h), read-out: AP4 A, umol/l blood): 0.045 µmol/L
concentration at 40 min ([4]; rabbit, blood, iv, in vivo, 40 min after infusion (50 mg/kg over 2 h), read-out: AP4 A, umol/l blood): 0.05 µmol/L
concentration at 1 h ([4]; rabbit, blood, iv, in vivo, 60 min after infusion (50 mg/kg over 2 h), read-out: AP4 A, umol/l blood): 0.042 µmol/L
time to complete clearance after infusion ([4]; rabbits, after end of infusion): ≤ 10 min
blood content of AP4 A prior to infusion ([4]; rabbits, prior to infusion): 51 nmol/1 blood
blood content of AP4 A: fold lower than the level observed in man ([4]; rabbits, prior to infusion, versus man): 7.3 fold
level of AP4 A as compared to baseline ([6]; ex vivo, after 10 minutes): 15 fold
level of AP4 A as compared to baseline ([6]; ex vivo, after 20 minutes): 4 fold
ATP, umol/l blood ([6]; ex vivo, 10 min at 37° C.): 570.1 umol/l blood
ATP, umol/l blood ([6]; ex vivo, 20 min at 37° C.): 559.3 umol/l blood
ATP, umol/l blood ([6]; ex vivo, 40 min at 37° C.): 551.5 umol/l blood
ATP, umol/l blood ([6]; ex vivo, 60 min at 37° C.): 572.0 umol/l blood
concentration at 10 min ([6]; rabbit, blood, iv, 50 mg/kg, ex vivo, 10 min at 37° C., read-out: AP4 A, umol/l blood): 0.799 µmol/L
concentration at 20 min ([6]; rabbit, blood, iv, 50 mg/kg, ex vivo, 20 min at 37° C., read-out: AP4 A, umol/l blood): 0.21 µmol/L
concentration at 40 min ([6]; rabbit, blood, iv, 50 mg/kg, ex vivo, 40 min at 37° C., read-out: AP4 A, umol/l blood): 0.041 µmol/L
concentration at 1 h ([6]; rabbit, blood, iv, 50 mg/kg, ex vivo, 60 min at 37° C., read-out: AP4 A, umol/l blood): 0.037 µmol/L
SMILES: Nc1ncnc2c1ncn2[C@@H]1O[C@H](COP(=O)(O)OP(=O)(O)OP(=O)(O)OP(=O)(O)OC[C@H]2O[C@@H](n3cnc4c(N)ncnc43)[C@H](O)[C@@H]2O)[C@@H](O)[C@H]1O [AP4 A, diadenosine 5',5'"-p^1,p^4 -tetraphosphate]
effect on preformed aggregates caused by collagen ([1]; added after aggregation, collagen 200 ug/ml (FIG. 2)): no effect
effect on collagen-induced aggregation ([1]; added prior to induction, collagen 200 ug/ml (FIG. 3B)): inhibiting slightly
effect on collagen-induced platelet aggregation ([1]; same dose that almost completely inhibits ADP-induced aggregation): little or no effect
effect on ADP induced platelet aggregation [2]: competitively inhibits ADP induced platelet aggregation, causing an immediate dispersion of aggregated platelets
% CLOTS (incidence of thrombosis) [3, 8]: 56%
Clot Absent (rabbits) [3, 8]: 11
Clot Present (rabbits) [3, 8]: 14
difference in dimension and weight of clots versus controls ([3]; AP4 A 50 mg/kg over 2 hours): no significant difference
degradation products [5]: degraded to AMP and ATP
ex vivo decay compared to in vivo clearance ([6]; rabbit blood): significantly longer; also recorded: slightly longer
effect on collagen-induced aggregation after AP4 A infusion [7]: little effect
